Bounds are passed on as bounds.

The values that follow come from US20100298557A1, “PYRAZOLOPYRIMIDINE COMPOUND” (Taisho Pharmaceutical Co., Ltd, priority 2006, published 2010).

For test [1], the system named is PCA reaction. Kind of test: Rat passive cutaneous anaphylaxis (PCA) test. Type of test: in vivo. To be noted: male Wistar rats, oral administration four hours prior to antigen challenge, blue spot area. The procedure:
The back of seven-week-old male Wistar rats was clipped under light anesthesia with ether, and the rats were sensitized by intradermal administration of 100 μl of 25 ng/ml anti-dinitrophenyl-IgE (DNP-IgE) (Sigma) to the back. 24 hours after the sensitization, 1 ml of a 0.5% Evans blue solution containing 1 mg of DNP-BSA was intravenously administered. Further, 30 minutes after the administration, the rats were sacrificed and the back skin was collected. The test compound, or only a vehicle as a control, was orally administered four hours prior to the antigen challenge. The length and breadth of the skin blue spot were calipered, and the area of the blue spot was calculated as length×breadth. The PCA inhibition rate by the test substance was calculated by the following formula. In the formula, • C represents: a blue spot area by PCA reaction when only the vehicle was administered, and • X represents: a blue spot area by PCA reaction when the test compound was administered. Inhibition rate (%)=(C−X)×100/C

Test [2] has as its target T1, Abl (Homo sapiens, UniProt P00519).
T1 construct: purchased Wako Pure Chemical Industries
Kind of test: Abl inhibition test. Type of test: biochemical. The settings on record: Abltide substrate, ATP 6 μM, [γ-33P]ATP, 40 minutes room temperature; read-out: Abl inhibitory activity IC50. The procedure: 5 ng/5 μl/well of an Abl (Wako Pure Chemical Industries) solution, 30 μl of an Abltide substrate peptide solution (Wako Pure Chemical Industries; final concentration 5 μM) and 5 μl of a test substance solution were added to a 96-well plate (Corning), followed by incubation at room temperature for 15 minutes. Then, 10 μl of an ATP mixture (ATP: Oriental Yeast, final concentration 6 μM, [γ-33P]ATP: GE Healthcare Biosciences, 0.06 μCi/well, MgAcetate: Cosmo Bio, final concentration 10 mM) was added, followed by incubation at room temperature for 40 minutes. The Abl solution was prepared using a kinase buffer (20 mM MOPS pH 7.0, 1 mM EDTA, 0.1% β-mercaptoethanol, 0.01% Brij-35, 5% glycerol, 1 mg/ml BSA). The substrate peptide solution and the ATP mixture were prepared using 8 mM MOPS pH 7.0 and 0.2 mM
EDTA. The test substance solution was made by dissolving the test substance in DMSO at each concentration. The final concentration of DMSO was 1%. The reaction was terminated by adding 100 μl of a 100 mM phosphoric acid solution as a reaction terminator. Then, the total reaction solution was transferred to a 96-well MultiScreen plate (Millipore) and washed with 200 μl of 100 mM phosphoric acid three times. After drying, 20 μl of MicroScint-O (PerkinElmer) was added and the radioactivity was measured by TopCount (PerkinElmer). After subtracting the radioactivity in the well to which the Abltide substrate peptide was not added from each radioactivity, the ratio of the radioactivity when the test substance was added to the radioactivity when the test substance was not added was determined. The IC50 value was calculated from the inhibition rate at each concentration and used as an index of inhibitory activity.

Test [3] deals with T2, Syk (Homo sapiens, UniProt P43405).
T2 construct: purchased Wako Pure Chemical Industries
Kind of test: Syk inhibition test. Type of test: biochemical. To be noted: poly(L-glu-L-tyr) substrate, ATP 5 μM, [γ-33P]ATP, 30 minutes room temperature; read-out: Syk inhibitory activity IC50. The procedure:
10 ng/10 μl/well of a Syk (Wako Pure Chemical Industries) solution, 15 μl of a poly(L-glu-L-tyr) substrate peptide solution (Sigma, final concentration 5 μM), 20 μl of an ATP mixture (ATP: Oriental Yeast, final concentration 5 μM, [γ-33P]ATP: GE Healthcare Biosciences, 0.1 μCi/well) and 5 μl of a test substance solution were added to a 96-well Corning reaction plate, followed by incubation at room temperature for 30 minutes. An assay buffer containing 50 mM Tris pH 7.5, 10 mM MgCl2, 0.1 mM Na3VO4, 1 mM DTT, 0.01% CHAPS and 100 μg/ml BSA was used. The test substance solution was made by dissolving the test substance in DMSO at each concentration. The final concentration of DMSO was 1%. The reaction was terminated by adding 100 μl of a 120 mM phosphoric acid solution as a reaction terminator. Then, the total reaction solution was transferred to MultiScreen (Millipore) and washed with 200 μl of 100 mM phosphoric acid four times.
After drying, 20 μl of MicroScint-O (PerkinElmer) was added and the radioactivity was measured by TopCount (PerkinElmer). The ratio of the radioactivity when the test substance was added to the radioactivity when the test substance was not added was determined. The IC50 value was calculated from the inhibition rate at each concentration and used as an index of inhibitory activity.

In test [4] the test system is Human mast cell line LAD cells. Kind of test: Degranulation test using human mast cell line LAD cells. Type of test: cell-based. To be noted: IgE-sensitized LAD cells, anti-human IgE stimulation, β-hexosaminidase release, read-out: degranulation inhibitory activity IC50. The procedure:
Human mast cell line LAD cells were sensitized with human IgE (Cosmo Bio; final concentration 1 μg/ml) overnight. The cells were harvested, and then washed with PBS (Invitrogen) and washed again with Tyrode's buffer solution (Sigma) containing 0.1% BSA (Sigma). The cells were seeded into a 96-well plate at 10^5 cells/well and then the compound (0.1% final concentration DMSO solution) was added, followed by incubation at 37° C. for 15 minutes. Rabbit anti-human IgE (Dako Japan; final concentration 10 μg/ml) or control Ig (Dako Japan; final concentration 10 μg/ml) was added, followed by incubation at 37° C. for 30 minutes. The supernatant was recovered and p-nitrophenyl-2-acetamido-2-deoxy-β-D-glucopyranoside (Sigma; final concentration 4 mM), a substrate of β-hexosaminidase which is an index of degranulation, was added, followed by incubation at 37° C. for 45 minutes. Glycine (Wako; final concentration 0.2 M, pH 10.4) was added and the reaction was terminated. Then, the absorbance at 405 nm was measured.
The inhibition rate (%) was calculated as (anti-IgE antibody degranulation rate—compound-added group degranulation rate)/(anti-IgE antibody degranulation rate—control antibody degranulation rate)×100. The IC50 value was calculated from the inhibition rate at each concentration and used as an index of inhibitory activity.

Test [5] has as its system collagen-induced arthritis. Kind of test: Mouse collagen-induced arthritis (CIA) test. Type of test: in vivo. To be noted: male DBA/1 mice, oral administration for 42 consecutive days, arthritis score. As to the method:
Seven-week-old male DBA/1 mice were sensitized by intradermal administration of bovine type II collagen/complete Freund's adjuvant emulsion (150 μg/0.1 ml/mouse) to the tail head. 21 days after the primary sensitization, the mice were similarly boosted by intradermal administration of bovine type II collagen/complete Freund's adjuvant emulsion (100 μg/0.1 ml/mouse) to the tail head. After the booster, the degree of arthritis was scored by observation for each extremity twice a week on the following scale. • 0: No arthritis • 1: Edema in one finger joint • 2: Edema in two or more finger joints or instep • 3: Edema in tarsus or ankle • 4: Severe edema or joint deformation Oral administration of the test compound, or only a vehicle as a control, was started 30 minutes prior to the booster, and administration was carried out for 42 consecutive days thereafter. For each day passed, the total score for the extremities was provided as an arthritis score for one individual (0 to 16), and the arthritis onset inhibitory effect was evaluated as an average value for eight cases using the vehicle-administered group as a control group.

T1 sequence (P00519 whole entry, species assumed): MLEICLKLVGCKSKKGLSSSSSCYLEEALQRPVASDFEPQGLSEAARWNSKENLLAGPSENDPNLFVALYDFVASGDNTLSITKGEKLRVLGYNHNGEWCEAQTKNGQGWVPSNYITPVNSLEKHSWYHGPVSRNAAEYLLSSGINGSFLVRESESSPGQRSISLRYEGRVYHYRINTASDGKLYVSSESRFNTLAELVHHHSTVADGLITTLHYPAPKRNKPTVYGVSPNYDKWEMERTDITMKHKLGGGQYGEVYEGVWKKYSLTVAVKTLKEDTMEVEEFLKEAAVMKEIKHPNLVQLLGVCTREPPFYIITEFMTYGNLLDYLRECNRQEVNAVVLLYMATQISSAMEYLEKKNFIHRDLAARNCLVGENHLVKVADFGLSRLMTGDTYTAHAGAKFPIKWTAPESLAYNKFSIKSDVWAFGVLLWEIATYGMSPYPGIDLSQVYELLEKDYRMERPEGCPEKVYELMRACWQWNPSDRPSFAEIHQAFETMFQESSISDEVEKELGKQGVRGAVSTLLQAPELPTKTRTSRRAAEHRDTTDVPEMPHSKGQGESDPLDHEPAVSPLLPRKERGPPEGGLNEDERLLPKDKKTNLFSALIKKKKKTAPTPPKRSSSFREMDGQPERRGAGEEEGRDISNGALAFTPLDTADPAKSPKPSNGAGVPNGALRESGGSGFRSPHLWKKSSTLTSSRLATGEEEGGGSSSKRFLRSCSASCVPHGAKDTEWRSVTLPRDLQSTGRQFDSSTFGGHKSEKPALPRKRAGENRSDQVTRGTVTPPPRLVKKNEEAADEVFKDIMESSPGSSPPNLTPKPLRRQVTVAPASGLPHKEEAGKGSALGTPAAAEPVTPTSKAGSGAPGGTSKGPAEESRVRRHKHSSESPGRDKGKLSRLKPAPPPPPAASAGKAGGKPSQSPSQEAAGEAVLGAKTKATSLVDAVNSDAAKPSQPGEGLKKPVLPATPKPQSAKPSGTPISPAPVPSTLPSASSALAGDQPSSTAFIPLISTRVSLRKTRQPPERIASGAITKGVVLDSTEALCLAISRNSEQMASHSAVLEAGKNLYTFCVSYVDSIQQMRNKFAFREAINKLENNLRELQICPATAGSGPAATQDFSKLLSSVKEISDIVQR

Regarding `CS(=O)(=O)c1n[nH]c2nc(Nc3ccc(N4CCOCC4)cc3)nc(NC3CC3)c12` [Compound 6, N^4-Cyclopropyl-3-(methylsulfonyl)-N^6-(4-morpholin-4-ylphenyl)-1H-pyrazolo[3,4-d]pyrimidine-4,6-diamine], in test [1], the “inhibition of PCA reaction” value was “excellently inhibited PCA reaction”. For the same molecule, the figures for the half-maximal inhibitory concentration (IC50) in test [2] and in test [3] were at most 50 nM and 160 nM, respectively.
Regarding `CS(=O)(=O)c1n[nH]c2nc(Nc3ccc(N4CCOCC4)cc3)nc(NC3CC3)c12` [Compound 7], the 50% inhibitory concentration (IC50) (as a rule, the point on the concentration scale where inhibition reaches its midpoint) in test [4] was 24 nM. Besides, the “inhibition of the onset of arthritis in the CIA model” value in test [5] is reported as “excellently inhibited the onset of arthritis”.
Regarding `CS(=O)(=O)c1n[nH]c2nc(Nc3ccc(N4CCCC(CO)C4)cc3)nc(NC3CC3)c12` (centres unmarked) [Compound 130], the IC50 in test [4] was at most 100 nM; in test [2] it was at most 10 nM; in test [3], at most 200 nM.
In the case of `CN1CCN(c2ccc(Nc3nc(NC4CC4)c4c(S(C)(=O)=O)n[nH]c4n3)cc2)CC1` [Compound 131, N^4-Cyclopropyl-N^6-[4-(4-methylpiperazin-1-yl)phenyl]-3-(methylsulfonyl)-1H-pyrazolo[3,4-d]pyrimidine-4,6-diamine], the IC50 was at most 100 nM in test [4], at most 10 nM in test [2] and at most 200 nM in test [3].
Take `CS(=O)(=O)c1n[nH]c2nc(Nc3ccc(N4CCS(=O)(=O)CC4)cc3)nc(NC3CC3)c12` [Compound 134]: the figures for the IC50 in test [4], in test [2] and in test [3] were at most 100 nM, at most 10 nM and at most 200 nM, respectively.
`CS(=O)(=O)c1n[nH]c2nc(Nc3ccc(N4CCCC(C(=O)N5CCOCC5)C4)cc3)nc(NC3CC3)c12` (centres unmarked) [Compound 143]: the IC50 in test [4] was at most 100 nM; in test [2] it was at most 10 nM; in test [3], at most 200 nM.
